Activity calls are given as the source filed them. How the calls were made is not given here.

As usually defined, the AC50 is the midpoint of the concentration-response curve, whichever way the signal moves.

This assay relates to Clostridioides difficile clinical isolate growth, OD600, 24 h. The experiment in a line: C. difficile growth inhibition, confirmation, 4-point retest (AID 1224921).
With `C/C=C/c1ccc2c(c1)O[C@H](CN(C)C(=O)c1ccc(F)cc1)[C@H](C)CN([C@H](C)CO)S2(=O)=O`, the AC50 was > 60 µM (inactive).

With `O=C(C[C@@H]1CC[C@H]2[C@@H](COC[C@@H](O)CN2C(=O)Nc2ccc(Cl)c(Cl)c2)O1)NC1CCC1`, the concentration at half-maximal activity (AC50) is 3.86 µM.

Take `C[C@@H]1CCCCO[C@@H](CN(C)C)[C@H](C)CN([C@H](C)CO)C(=O)c2cc(NC(=O)Nc3ccc(C(F)(F)F)cc3)ccc2O1`: the AC50 was 17.5 µM.

For the molecule `CO[C@@H]1CN(C)C(=O)c2ccc(NC(=O)C3CCC3)cc2OC[C@@H](C)N(C(=O)Nc2ccc(C(F)(F)F)cc2)C[C@H]1C`, the half-maximal activity concentration (AC50) is 11.6 µM.

Regarding `O=C(C[C@@H]1CC[C@H]2[C@@H](COC[C@@H](O)CN2CC2CCCCC2)O1)NCc1ccc(Cl)cc1`, the AC50 was > 60 µM (inactive).

With `C[C@H]1CN([C@@H](C)CO)S(=O)(=O)c2ccc(C#Cc3cccc(F)c3)cc2O[C@H]1CN(C)C`, the AC50 is 24.8 µM.

As for `O=C(C[C@H]1CC[C@@H]2[C@H](COC[C@H](O)CN2C(=O)Nc2ccc(Cl)c(Cl)c2)O1)NCc1ccccc1`, the half-maximal activity concentration (AC50) was under 1.95 µM.

`O=C(C[C@H]1CC[C@H]2[C@@H](COC[C@@H](O)CN2C(=O)Nc2cc(Cl)cc(Cl)c2)O1)N1CCOCC1`: the AC50 was 9.57 µM.

Turning to `O=C(C[C@H]1CC[C@H]2[C@@H](COC[C@H](O)CN2C(=O)Nc2ccc(Cl)c(Cl)c2)O1)NC1CCC1`, the AC50 was 2.03 µM.

Regarding `O=C(C[C@H]1CC[C@@H]2[C@H](COC[C@H](O)CN2C(=O)Nc2ccc(C(F)(F)F)cc2)O1)NCCc1ccncc1`, the AC50 was 3.55 µM.

Regarding `COc1ccccc1CNC(=O)C[C@H]1CC[C@H]2[C@@H](COC[C@H](O)CN2C(=O)Nc2ccc(C(F)(F)F)cc2)O1`, the AC50 was 12 µM.

In the case of `CO[C@H](CN(C)C(=O)C1CC1)[C@H](C)CN(C(=O)Nc1ccc(C(F)(F)F)cc1)[C@@H](C)CO`, the AC50 was 14.7 µM.

As for `CO[C@H]1CN(C)C(=O)c2cc(NC(=O)Nc3ccc(Cl)c(Cl)c3)ccc2OC[C@H](C)NC[C@H]1C`, the AC50 is 9.51 µM.

For the molecule `C[C@@H]1CN([C@H](C)CO)C(=O)c2cc(NS(=O)(=O)c3ccc(Cl)cc3)ccc2O[C@@H](C)CCCCO[C@H]1CN(C)Cc1ccc(C(F)(F)F)cc1`, the AC50 is > 60 µM (inactive).

For the molecule `CCNC(=O)C[C@H]1CC[C@@H]2[C@H](COC[C@H](O)CN2C(=O)Nc2ccc(C(F)(F)F)cc2)O1`, the AC50 is 3.45 µM.

On to `CO[C@H](CN(C)S(=O)(=O)c1cn(C)cn1)[C@H](C)CN(C(=O)Nc1ccc(C(F)(F)F)cc1)[C@@H](C)CO`, for which the AC50 was 7.66 µM.

Consider `O=C(NCC[C@@H]1CC[C@H](NC(=O)C2CCCCC2)[C@H](CO)O1)Nc1ccc(Cl)cc1`, for which the half-maximal activity concentration (AC50) was 30 µM.

For `O=C(NCC[C@H]1CC[C@H](NC(=O)C2CC2)[C@@H](CO)O1)Nc1ccc(C(F)(F)F)cc1`, the AC50 was 15.6 µM.

On to `O=C(NCC[C@H]1CC[C@H](NC(=O)C2CC2)[C@H](CO)O1)Nc1ccc(C(F)(F)F)cc1`, for which the AC50 was 16 µM.

`C[C@H](NC(=O)C[C@H]1CC[C@H]2[C@@H](COC[C@@H](O)CN2C(=O)Nc2cc(Cl)cc(Cl)c2)O1)c1ccccc1`: the half-maximal activity concentration (AC50) is 17.9 µM.

Take `O=C(C[C@H]1CC[C@H]2[C@@H](COC[C@H](O)CN2S(=O)(=O)c2ccc(F)cc2)O1)NCC1CCCCC1`: the AC50 is 15.4 µM.

For `O=C(C[C@H]1CC[C@@H]2[C@H](COC[C@H](O)CN2C(=O)Nc2ccc(Cl)c(Cl)c2)O1)NCc1ccc(Cl)c(Cl)c1`, the AC50 was under 0.5 µM.

Take `CO[C@H]1CN(C)C(=O)c2ccc(NC(=O)Nc3ccc(Cl)c(Cl)c3)cc2OC[C@H](C)NC[C@H]1C`: the half-maximal activity concentration (AC50) is 9.83 µM.

Consider `O=C(C[C@@H]1CC[C@@H]2[C@H](COC[C@H](O)CN2C(=O)Nc2ccc(Cl)c(Cl)c2)O1)NCc1ccccc1`, for which the AC50 is 2.01 µM.

With `O=C(C[C@H]1CC[C@H]2[C@@H](COC[C@@H](O)CN2C(=O)Nc2ccc(C(F)(F)F)cc2)O1)NCC1CC1`, the AC50 is 1.18 µM.

On to `C[C@@H]1CN([C@@H](C)CO)C(=O)c2cc(NC(=O)Nc3ccc(C(F)(F)F)cc3)ccc2O[C@@H]1CN(C)CC1CCCCC1`, for which the half-maximal activity concentration (AC50) is 9.84 µM.

As to `CO[C@H](CN(C)C(=O)C1CCOCC1)[C@H](C)CN(C(=O)Nc1ccc(C(F)(F)F)cc1)[C@H](C)CO`, the AC50 was 5.96 µM.

Regarding `CCS(=O)(=O)N1[C@H](CO)[C@H](c2ccc(C#CCC3CCCC3)cc2)[C@@H]1C#N`, the AC50 was 19.8 µM.

As for `C[C@H]1CN([C@@H](C)CO)C(=O)c2cccc(NC(=O)Nc3ccc(C(F)(F)F)cc3)c2O[C@H]1CN(C)C(=O)Nc1ccc(F)cc1`, the concentration at half-maximal activity (AC50) was 23.4 µM.

For `C[C@@H]1CN([C@@H](C)CO)C(=O)Cc2cc(NC(=O)Nc3ccc(C(F)(F)F)cc3)ccc2O[C@H]1CN(C)Cc1ccccc1`, the concentration at half-maximal activity (AC50) is 17.9 µM.

On to `CCNC(=O)C[C@@H]1CC[C@@H]2[C@H](COC[C@@H](O)CN2C(=O)Nc2ccc(C(F)(F)F)cc2)O1`, for which the AC50 is 13.6 µM.

With `CCCN(C)C[C@@H]1OCCCC[C@H](C)Oc2ccc(NC(=O)Nc3ccc(C(F)(F)F)cc3)cc2C(=O)N([C@@H](C)CO)C[C@@H]1C`, the half-maximal activity concentration (AC50) is 12.5 µM.

For `C[C@@H]1CN([C@H](C)CO)S(=O)(=O)c2ccc(C#Cc3cccc(F)c3)cc2O[C@H]1CN(C)C`, the AC50 is > 60 µM (inactive).

Consider `O=C(C[C@@H]1CC[C@@H]2[C@H](COC[C@@H](O)CN2C(=O)Nc2ccc(Cl)c(Cl)c2)O1)NCc1ccc(F)cc1`, for which the AC50 was 1.87 µM.

For `C[C@H]1CN([C@@H](C)CO)S(=O)(=O)c2ccc(C#CC3CCCCC3)cc2O[C@H]1CN(C)C`, the AC50 is 16.4 µM.

As for `CNC(=O)C[C@@H]1CC[C@H]2[C@@H](COC[C@H](O)CN2C(=O)Nc2ccc(Cl)c(Cl)c2)O1`, the concentration at half-maximal activity (AC50) was 7.63 µM.

Regarding `O=C(C[C@@H]1CC[C@@H]2[C@H](COC[C@@H](O)CN2C(=O)Nc2cccc(Cl)c2)O1)N1CCCCC1`, the AC50 was 18.7 µM.

In the case of `C[C@@H]1CCCCO[C@@H](CN(C)Cc2ccc3c(c2)OCO3)[C@H](C)CN([C@@H](C)CO)C(=O)c2cc(NC(=O)Nc3ccc(C(F)(F)F)cc3)ccc2O1`, the AC50 is > 60 µM (inactive).

On to `CCCNC(=O)C[C@@H]1CC[C@H]2[C@@H](COC[C@@H](O)CN2C(=O)Nc2ccc(Cl)c(Cl)c2)O1`, for which the AC50 is 2.59 µM.

As to `CO[C@H](CN(C)S(=O)(=O)c1cn(C)cn1)[C@@H](C)CN(C(=O)Nc1ccc(C(F)(F)F)cc1)[C@@H](C)CO`, the concentration at half-maximal activity (AC50) was 2.93 µM.

For `COc1ccc(C(=O)Nc2ccc3c(c2)OC[C@@H](C)N(C(C)=O)C[C@H](C)[C@@H](OC)CN(C)C3=O)cc1`, the AC50 is > 60 µM (inactive).

As for `O=C(C[C@@H]1CC[C@@H]2[C@H](COC[C@H](O)CN2Cc2ccc(Oc3ccccc3)cc2)O1)N1CCCCC1`, the AC50 is 20.6 µM.

For `CS(=O)(=O)N1[C@H](CO)[C@@H](c2ccc(C#CC3CCCCC3)cc2)[C@@H]1C#N`, the AC50 is 17.6 µM.

For `CO[C@H]1CN(C)C(=O)c2cc(NC(C)=O)ccc2OC[C@@H](C)N(CCc2ccccc2)C[C@H]1C`, the AC50 was > 60 µM (inactive).

As for `O=C(C[C@@H]1CC[C@@H]2[C@H](COC[C@H](O)CN2C(=O)Nc2ccc(C(F)(F)F)cc2)O1)NCC1CCCCC1`, the concentration at half-maximal activity (AC50) is 1.09 µM.

As to `COc1ccccc1S(=O)(=O)N(C)C[C@H]1OCc2ccccc2-c2c(n(C)c3ccccc23)C(=O)N([C@H](C)CO)C[C@@H]1C`, the AC50 is > 60 µM (inactive).

On to `O=C(NCC[C@@H]1CC[C@@H](NC(=O)C2CC2)[C@@H](CO)O1)Nc1ccc(C(F)(F)F)cc1`, for which the half-maximal activity concentration (AC50) is 10.7 µM.

Regarding `CC(=O)N[C@H]1CC[C@H](CCNC(=O)Nc2ccc(C(F)(F)F)cc2)O[C@@H]1CO`, the AC50 was 9.65 µM.

Regarding `O=C(C[C@H]1CC[C@H]2[C@@H](COC[C@@H](O)CN2C(=O)Nc2ccc(Cl)c(Cl)c2)O1)NC1CCC1`, the concentration at half-maximal activity (AC50) is 4.29 µM.

As to `O=C(C[C@@H]1CC[C@H]2[C@@H](COC[C@@H](O)CN2C(=O)Nc2ccc(Cl)c(Cl)c2)O1)NCc1ccc(Cl)c(Cl)c1`, the concentration at half-maximal activity (AC50) is under 0.5 µM.

In the case of `COc1ccc(-c2ccc([C@H]3[C@@H](C#N)N(C(=O)C4CCC4)[C@H]3CO)cc2)cc1`, the AC50 was > 70 µM (inactive).

For the molecule `O=C(C[C@@H]1CC[C@H]2[C@@H](COC[C@@H](O)CN2C(=O)Nc2cc(Cl)cc(Cl)c2)O1)NCC1CC1`, the half-maximal activity concentration (AC50) was 16.2 µM.

For `O=C(C[C@@H]1CC[C@@H]2[C@H](COC[C@H](O)CN2C(=O)Nc2cc(Cl)cc(Cl)c2)O1)N1CCCCC1`, the AC50 was 1.41 µM.

For the molecule `C[C@@H](NC(=O)C[C@H]1CC[C@H]2[C@@H](COC[C@H](O)CN2C(=O)Nc2cccc(Cl)c2)O1)c1ccccc1`, the concentration at half-maximal activity (AC50) is 9.84 µM.

With `O=C(NCC[C@@H]1CC[C@@H](NC(=O)c2cccnc2)[C@H](CO)O1)Nc1ccc(C(F)(F)F)cc1`, the AC50 was 3.16 µM.

Consider `COc1ccccc1CNC(=O)C[C@@H]1CC[C@H]2[C@@H](COC[C@@H](O)CN2C(=O)Nc2ccc(C(F)(F)F)cc2)O1`, for which the concentration at half-maximal activity (AC50) was 2.14 µM.

`C[C@@H]1CN([C@@H](C)CO)S(=O)(=O)c2ccc(/C=C/c3ccccc3)cc2O[C@H]1CN(C)Cc1ccc(C(=O)O)cc1`: the concentration at half-maximal activity (AC50) is 1.35 µM.

For `CNC(=O)C[C@@H]1CC[C@@H]2[C@H](COC[C@H](O)CN2C(=O)Nc2ccc(Cl)c(Cl)c2)O1`, the half-maximal activity concentration (AC50) was 3.06 µM.

As to `C[C@H](CO)N1C[C@H](C)[C@H](CN(C)C(=O)Nc2ccc(C(F)(F)F)cc2)Oc2c(NC(=O)Nc3ccccc3)cccc2C1=O`, the AC50 is > 60 µM (inactive).

Turning to `O=C(C[C@@H]1CC[C@H]2[C@@H](COC[C@@H](O)CN2C(=O)Nc2ccc(C(F)(F)F)cc2)O1)NCCc1ccncc1`, the half-maximal activity concentration (AC50) is 4.89 µM.

On to `C[C@H]1CN([C@@H](C)CO)S(=O)(=O)c2ccc(C#CC3CCCC3)cc2O[C@@H]1CN(C)Cc1cccnc1`, for which the AC50 is > 60 µM (inactive).

Regarding `CCNC(=O)C[C@@H]1CC[C@@H]2[C@H](COC[C@H](O)CN2C(=O)Nc2ccc(Cl)c(Cl)c2)O1`, the AC50 was 4.07 µM.

With `CCC(=O)N[C@@H]1CC[C@H](CCNC(=O)Nc2ccc(C(F)(F)F)cc2)O[C@@H]1CO`, the AC50 is 4.29 µM.

Take `CN(C)CC(=O)N[C@@H]1CC[C@@H](CCNC(=O)Nc2ccc(C(F)(F)F)cc2)O[C@@H]1CO`: the AC50 is 4.58 µM.

As for `C[C@@H]1CCCCO[C@H](CN(C)CC2CCCCC2)[C@H](C)CN([C@@H](C)CO)C(=O)c2cc(NS(=O)(=O)c3ccc(Cl)cc3)ccc2O1`, the AC50 is 14.6 µM.

Regarding `O=C(C[C@@H]1CC[C@@H]2[C@H](COC[C@H](O)CN2C(=O)Nc2ccc(Cl)c(Cl)c2)O1)NCc1ccc(Cl)c(Cl)c1`, the half-maximal activity concentration (AC50) is 1.14 µM.

The record behind these values is PubChem BioAssay AID1224921 (Broad Institute, 2016).
